Like-named read-outs stand apart in the source and are kept apart here. Where a SMILES comes first, the peptide text is derived from it. [ ]: non-standard residue; d: D form. The star is where a group is joined. Lauroyl = CCCCCCCCCCCC(=O)*; 12Ado = NCCCCCCCCCCCC(=O)O
Assays:
[1] = tested on: Human blood (red cells, 1% hematocrit); conditions: 3 h incubation in PBS 37°C; published data; cited from earlier work
Description: Table 1 Structure-activity study highlighting biophysical attributes of N-terminal OAK derivatives | column: LC50 ^d (μM)

[2] = tested on: panel of GNB: E. coli 35218, 14182, 16327, 16329, 14384, S. Typhimurium 14028, S. stanley 7308, K. pneumoniae 1287, KPC2; test: MIC and chemo-sensitization, one result for the whole panel of GNB (Suppl. Table S1)
E. coli = test: MIC and reciprocal sensitization (Fig. 2a,b; Suppl. Figs S2, S3); format: cell-based, Escherichia coli
Klebsiella = test: MIC (Suppl. Figs S2, S3); format: cell-based
[3] = one value for all nine listed strains
[4] = one value for all nine listed strains, OAK 1.25 µg/ml
[5] = one value for all nine listed strains, OAK 2.5 µg/ml
[6] = one value for all nine listed strains, OAK 5 µg/ml

NCCCC[C@H](NC(=O)CCCCCCCCCCCNC(=O)[C@H](CCCCN)NC(=O)[C@@H](N)CCCCN)C(N)=O [X, lysyl-lysyl-aminododecanoyl-lysyl-amide] (H-KK[12Ado]K-NH2)
LC50, OAK concentration that induced 50% hemolysis [1]: >100 µM

CCCCCCCCCCCC(=O)N[C@@H](CCCCN)C(=O)N[C@@H](CCCCN)C(=O)NCCCCCCCCCCCC(=O)N[C@@H](CCCCN)C(N)=O [C12X] (Lauroyl-KK[12Ado]K-NH2)
LC50, OAK concentration that induced 50% hemolysis [1]: 29 ± 9 µM

CC1(C)S[C@@H]2[C@H](NC(=O)Cc3ccccc3)C(=O)N2[C@H]1C(=O)O [Penicillin G, penicillin G]
SF, sensitization factor, penicillin G with C10KKc12K [2, 3]: 1
SF, sensitization factor, penicillin G with C12(ω7)KKc12K [2, 3]: 1
MIC of penicillin G in presence of C10KKc12K [2, 4]: > 512 µg/mL
MIC of penicillin G in presence of C12(ω7)KKc12K [2, 4]: > 512 µg/mL
MIC of penicillin G in presence of C10KKc12K [2, 5]: > 512 µg/mL
MIC of penicillin G in presence of C12(ω7)KKc12K [2, 5]: > 512 µg/mL
MIC of penicillin G in presence of C10KKc12K [2, 6]: > 512 µg/mL
MIC of penicillin G in presence of C12(ω7)KKc12K [2, 6]: > 512 µg/mL
MIC ([2]; read-out: MIC of penicillin G in presence of C10KKc12K): > 512 µg/mL
MIC ([2]; read-out: MIC of penicillin G in presence of C12(ω7)KKc12K): > 512 µg/mL

CC[C@H]1OC(=O)[C@H](C)[C@@H](O[C@H]2C[C@@](C)(OC)[C@@H](O)[C@H](C)O2)[C@H](C)[C@@H](O[C@@H]2O[C@H](C)C[C@H](N(C)C)[C@H]2O)[C@](C)(O)C[C@@H](C)C(=O)[C@H](C)[C@@H](O)[C@]1(C)O [erythromycin]
standalone antibiotic MIC (E. coli): 512 µg/mL
standalone antibiotic MIC (Klebsiella): 512 µg/mL

Source: publication PMC4363860 (Scientific Reports, 2015)
